Results: patent US4301313A, “Halogenated ethynyl biphenyls” (Eli-Lilly and Company, priority 1974, dated 1981)

Assays:
[1] = carrageenin-induced hind paw inflammation; format: in vivo; settings: Rattus norvegicus
Method: Representative compounds were also evaluated for anti-inflammatory activity in the test method described by C. A. Winter at 111 Proc. Soc. Exp. Biol. Med., 544 (1962). In this method, inflammation is created by injecting carrageenin into the hind paw of rats. Test compounds are administered prior to injection to determine percent inhibition of the subsequent inflammation, in comparison with control animals.

[2] = antipyretic effect in yeast-induced fever; format: in vivo, rat
Method: (4-(2-Fluorophenyl)phenyl)acetylene was evaluated for antipyretic effect in rats. Fever was induced by subcutaneous injection of yeast, a technique reported at 54 J. Pharm. Exp. Ther. 346 (1935). A total of 24 rats was employed, divided into 6 treatment groups. One group was a normal control, without even the yeast injection. A second group served as a yeast control, receiving yeast injection but none of the test compound. All of the remaining groups received the test compound, in the following pattern: no yeast+100 mg./kg. of compound yeast+100 mg./kg. of compound yeast+50 mg./kg. of compound yeast+10 mg./kg. of compound The procedure was that yeast was administered to all rats at the same time, and temperatures were ascertained two hours later, at which time the test compound was administered to those groups assigned to receive it. Temperatures of all animals were also recorded thereafter at 1.0, 1.5, 2.0, 2.5, and 3.0 hours following administration of the test compound.

[3] = analgesic activity, acetic acid-induced writhing; format: in vivo, mouse (albino male); settings: mouse, p.o., dose reducing writhing frequency by 50%; 30, 90, 180 minutes after administration
Method: Representative compounds were also evaluated for analgesic activity. The evaluation was conducted by using acetic acid-induced writhing in mice as the pain model. Clinically effective analgesis are effective when tested in this model: see Koster et al., "Acetic Acid for Analgesic Screening," 18 Fed. Proc. 412 (1959).
In a method similar to that reported by Koster et al., standard strain albino male mice weighing 20-22 grams were fasted overnight. The respective compound or vehicle (as control) was administered by gastric lavage (p.o.). Each compound was administered in an aqueous suspension of 1% methylcellulose in water. […] At 30, 90, and 180 minutes after administration, writhing was induced by the intraperitoneal administration of 55 mg./kg. of acetic acid (0.55%). Each treatment group consisted of 5 mice and separate groups were examined at each observation time. The total number of writhes for the treatment group were counted in a 10-minute observation period starting 5 minutes after the acetic acid administration. The treatment totals were compared to controls and a percent inhibition calculated as follows: [formula] […] An ED50, which represented the dose that would reduce the writhing frequency by 50%, was estimated from a dose-reponse curve of three or more points. A dose range was reported if only two points were availale for the dose response curve and they bracketed the 50% level. If data was available at 100 mg./kg., only, then the estimated ED50 was reported simply as less than 100 (<100).

C#Cc1ccc(-c2ccccc2F)cc1 [(4-(2-fluorophenyl)phenyl)acetylene]
inhibition in vivo at 0.3 mg/kg ([1]; 0.3 mg./kg.): 21%
inhibition in vivo at 0.5 mg/kg ([1]; 0.5 mg./kg.): 6%
inhibition in vivo at 1.5 mg/kg ([1]; 1.5 mg./kg.): 29%
inhibition in vivo at 2.5 mg/kg ([1]; 2.5 mg./kg.): 35%
inhibition in vivo at 5 mg/kg ([1]; 5 mg./kg.): 43%
inhibition in vivo at 15 mg/kg ([1]; 15 mg./kg.): 56%
inhibition in vivo at 25 mg/kg ([1]; 25 mg./kg.): 65%
inhibition in vivo at 50 mg/kg ([1]; 50 mg./kg.): 57%
Temperatures of rats receiving both yeast and test compound ([2]; 10, 50 and 100 mg./kg., all reading times): uniformly lower
Temperature change in rats receiving no yeast injection ([2]; no yeast, 100 mg./kg.): some lowering of temperature occurred
Statistical significance of temperature change in rats receiving no yeast ([2]; no yeast, 100 mg./kg., versus normal control and yeast control groups): not statistically significant
Antipyretic action ([2]; rats, yeast fever, conclusion): exhibited antipyretic action
Statistical significance of temperature differences, 1.5 hour reading ([2]; yeast rats, 50 mg./kg. and 100 mg./kg., 1.5 hour): not statistically significant
Statistical significance of temperature differences, 1.0 hour reading ([2]; yeast rats, all dose levels, 1.0 hour): not statistically significant
Statistical significance of temperature differences, all other doses ([2]; yeast rats, all other doses/readings): statistically significant
Estimated ED50 [3]: 20 mg/kg
